Measured values taken from ChEMBL document CHEMBL1201862, “PubChem BioAssay data set” (2004).
The source made the active and inactive calls.

What was measured:
[1] = biological target: Cytochrome P450 2D6 (Homo sapiens, UniProt P10635)
[2] = biological target: Cytochrome P450 2C9 (Homo sapiens, UniProt P11712)
[3] = biological target: T1, Calpain-2 catalytic subunit (Sus scrofa, UniProt P43367); assay: pig calpain II inhibitor potency, dose response, biochemical, fluorogenic peptide substrate (AID 1420); format: functional
T1 sequence (P43367 whole entry): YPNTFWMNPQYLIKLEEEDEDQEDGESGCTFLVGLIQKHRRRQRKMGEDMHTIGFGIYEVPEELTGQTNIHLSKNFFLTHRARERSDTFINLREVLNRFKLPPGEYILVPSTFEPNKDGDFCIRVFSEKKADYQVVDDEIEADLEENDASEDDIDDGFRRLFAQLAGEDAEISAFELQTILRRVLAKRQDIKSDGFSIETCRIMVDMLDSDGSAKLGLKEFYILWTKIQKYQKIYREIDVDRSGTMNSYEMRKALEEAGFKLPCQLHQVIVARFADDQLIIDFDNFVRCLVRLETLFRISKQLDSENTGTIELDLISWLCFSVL

[4] = biological target: Cytochrome P450 3A4 (Homo sapiens, UniProt P08684);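 further: CYP3A4 tested as one member of a cytochrome P450 panel screen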
Sequence of Cytochrome P450 3A4 (P08684 whole entry): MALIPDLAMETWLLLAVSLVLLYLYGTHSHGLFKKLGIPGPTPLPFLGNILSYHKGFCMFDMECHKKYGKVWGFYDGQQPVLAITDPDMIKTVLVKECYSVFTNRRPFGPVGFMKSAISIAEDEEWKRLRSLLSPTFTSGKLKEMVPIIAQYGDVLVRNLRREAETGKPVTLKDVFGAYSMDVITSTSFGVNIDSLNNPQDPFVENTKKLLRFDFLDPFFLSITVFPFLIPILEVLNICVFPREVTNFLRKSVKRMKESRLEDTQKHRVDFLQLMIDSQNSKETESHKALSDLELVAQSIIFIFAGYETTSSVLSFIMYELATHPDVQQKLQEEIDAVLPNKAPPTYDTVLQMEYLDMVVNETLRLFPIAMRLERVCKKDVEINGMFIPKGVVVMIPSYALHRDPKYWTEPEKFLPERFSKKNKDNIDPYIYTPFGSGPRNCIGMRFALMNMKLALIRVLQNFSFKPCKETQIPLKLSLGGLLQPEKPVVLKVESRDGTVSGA

[5] = biological target: T2, Cytochrome P450 1A2 (Homo sapiens, UniProt P05177);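 further: PubChem cytochrome P450 panel assay, CYP1A2 panel member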
T2 sequence (P05177 whole entry): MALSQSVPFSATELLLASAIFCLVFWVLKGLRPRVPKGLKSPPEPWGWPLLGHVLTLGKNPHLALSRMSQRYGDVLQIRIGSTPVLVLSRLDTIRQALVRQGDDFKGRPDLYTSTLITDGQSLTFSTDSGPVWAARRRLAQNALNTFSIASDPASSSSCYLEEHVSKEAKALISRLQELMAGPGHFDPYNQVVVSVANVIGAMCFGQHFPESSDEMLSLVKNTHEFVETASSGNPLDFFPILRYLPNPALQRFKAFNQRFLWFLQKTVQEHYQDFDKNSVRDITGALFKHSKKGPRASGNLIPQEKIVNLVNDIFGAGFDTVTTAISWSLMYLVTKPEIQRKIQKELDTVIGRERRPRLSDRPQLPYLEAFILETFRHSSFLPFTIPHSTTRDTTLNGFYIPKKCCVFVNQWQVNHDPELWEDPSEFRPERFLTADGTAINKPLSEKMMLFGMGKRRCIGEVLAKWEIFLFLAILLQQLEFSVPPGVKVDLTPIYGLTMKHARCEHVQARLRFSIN

[6] = biological target: Cytochrome P450 2C19 (Homo sapiens, UniProt P33261); assay: Cytochrome panel assay with activity outcomes. Panel member name: p450-cyp2c19 Compounds with AC50 equal or less than 10 uM are considered active; format: functional
Sequence of Cytochrome P450 2C19 (P33261 whole entry): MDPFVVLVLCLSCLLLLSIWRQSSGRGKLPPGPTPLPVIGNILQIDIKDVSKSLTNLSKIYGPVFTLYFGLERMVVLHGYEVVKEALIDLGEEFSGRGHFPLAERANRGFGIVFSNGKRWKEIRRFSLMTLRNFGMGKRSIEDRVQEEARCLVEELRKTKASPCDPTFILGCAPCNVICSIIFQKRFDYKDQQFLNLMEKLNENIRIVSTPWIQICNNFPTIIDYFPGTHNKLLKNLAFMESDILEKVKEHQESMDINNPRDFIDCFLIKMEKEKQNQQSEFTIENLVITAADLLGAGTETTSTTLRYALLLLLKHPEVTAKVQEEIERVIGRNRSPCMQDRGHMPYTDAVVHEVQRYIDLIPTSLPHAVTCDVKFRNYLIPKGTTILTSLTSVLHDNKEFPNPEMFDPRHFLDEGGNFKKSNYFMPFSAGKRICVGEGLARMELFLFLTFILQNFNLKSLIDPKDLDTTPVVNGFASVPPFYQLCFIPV

[7] = tested on: H9c2; assay: cells; format: functional, cell-based; conditions: Rattus norvegicus, H9c2, Myocardium;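 further: confirmatory concentration-response retest of ultra-high-throughput screening hits for modulation of myocardial damage; cell death induced by hydrogen peroxide oxidative stress; compound pretreatment for 60 min then peroxide exposure for 2 h; potency is for protecting the cells against peroxide damage rather than for killing them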
[8] = tested on: P388; assay: cells; format: functional; conditions: Mus musculus
[9] = tested on: P388/ADR; assay: cells; format: functional; conditions: Mus musculus
[10] = tested on: SN12K1; assay: cells; format: functional; conditions: Homo sapiens
[11] = growth suppression of beta-catenin-knockout colon cells, dose response, cell-based, HCT116, human colon tumor (AID 1045); format: functional;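 further: HCT116 colon tumor cells with beta catenin knocked out; cells exposed to compound for 60 hours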
[12] = growth suppression of PTEN-null colon cells, dose response, cell-based, HCT116 PTEN knockout (AID 1047); format: functional;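 further: HCT116 colon tumor cells with PTEN knocked out; cells exposed to compound for 60 hours before readout; potency for loss of cell viability measured by luminescence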
[13] = inhibitors of HIV Env-driven cell fusion, dose response, cherry-pick (AID 652057); format: functional, cell-based
[14] = inhibitors of clade B AD8 Env fusion, dose response, cell-based, cherry-pick (AID 652062); format: functional;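 further: luciferase signal from cell-cell fusion driven by HIV-1 clade B AD8 Env; potency is for inhibitors of fusion seen as a drop in luminescence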
[15] = NIH-3T3 fibroblast cytotoxicity, dose response, cytotoxicity control, cell-based, fluorescence, Alamar Blue, secondary assay (AID 2327); format: functional;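 further: NIH-3T3 mouse fibroblasts cultured with fluconazole at 8 µg/mL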
[16] = tested on: Streptococcus sp. 'group A'; assay: growth inhibition of control SK(-) GAS strain, dose response, counter-screen for streptokinase expression inhibitor project, luminescence, kanamycin, BacTiterGlo, confirmation (AID 1900); format: functional, organism-based
[17] = tested on: Streptococcus; assay: Group A Streptococcus viability loss, dose response, counter-screen for streptokinase expression inhibitor project, luminescence, BacTiterGlo (AID 1915); format: functional, organism-based;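 further: potency for reduction of bacterial viability or growth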
[18] = tested on: INS1; assay: beta cell apoptosis inhibitors, cytokine rescue, dose response, luminescence, retest (AID 449756); format: functional, cell-based; conditions: Rattus norvegicus;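 further: cell death triggered by IL-1 beta plus TNF-alpha plus IFN-gamma mixture; protective hits raise ATP signal compared with cytokine alone wells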

Sequence of Cytochrome P450 2C9 (P11712 whole entry): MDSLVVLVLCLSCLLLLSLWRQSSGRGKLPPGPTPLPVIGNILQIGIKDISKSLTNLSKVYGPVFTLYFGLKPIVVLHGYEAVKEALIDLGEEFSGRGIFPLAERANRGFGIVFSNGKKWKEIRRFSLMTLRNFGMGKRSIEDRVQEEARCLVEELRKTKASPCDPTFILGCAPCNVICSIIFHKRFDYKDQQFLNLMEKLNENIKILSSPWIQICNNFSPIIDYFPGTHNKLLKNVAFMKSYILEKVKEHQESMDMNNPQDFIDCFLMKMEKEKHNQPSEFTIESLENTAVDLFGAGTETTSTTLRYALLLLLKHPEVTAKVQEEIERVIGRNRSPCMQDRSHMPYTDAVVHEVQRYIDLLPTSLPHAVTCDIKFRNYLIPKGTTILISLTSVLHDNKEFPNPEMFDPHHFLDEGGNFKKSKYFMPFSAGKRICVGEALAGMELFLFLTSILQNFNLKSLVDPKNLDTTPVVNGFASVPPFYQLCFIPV
Sequence of Cytochrome P450 2D6 (P10635 whole entry): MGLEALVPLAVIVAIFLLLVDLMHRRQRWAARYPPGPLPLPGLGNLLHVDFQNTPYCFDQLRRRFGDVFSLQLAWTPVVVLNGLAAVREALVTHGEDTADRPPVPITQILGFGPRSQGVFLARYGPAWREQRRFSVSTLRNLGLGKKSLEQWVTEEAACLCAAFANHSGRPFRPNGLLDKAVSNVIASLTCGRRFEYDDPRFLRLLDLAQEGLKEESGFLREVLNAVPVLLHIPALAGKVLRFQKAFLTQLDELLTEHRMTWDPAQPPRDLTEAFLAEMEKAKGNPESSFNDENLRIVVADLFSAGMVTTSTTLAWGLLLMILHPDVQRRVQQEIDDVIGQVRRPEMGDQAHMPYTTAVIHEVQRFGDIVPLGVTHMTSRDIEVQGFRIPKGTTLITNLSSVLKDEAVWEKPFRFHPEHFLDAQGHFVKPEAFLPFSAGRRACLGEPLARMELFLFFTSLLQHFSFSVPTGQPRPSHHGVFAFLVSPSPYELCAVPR

Row | Structure (SMILES) | GI50 [8] | GI50 [9] | GI50 [10] | also measured
1 | CC(=O)N1c2c(cc(Br)cc2S(=O)(=O)NCC2COc3ccccc3O2)CC1C (configuration not stated) | – | – | – | AC50 [1]: 17.8 µM (inconclusive); AC50 [2]: inconclusive
2 | CSc1ncccc1C(=O)OCC(=O)Nc1ccc2c(c1)OCO2 | – | – | – | IC50 [3]: < 0.4 µM (not active)
3 | CCOc1ccc(OCc2ccc(C(=O)N3CCCC(C)C3)cc2)cc1 (configuration not stated) | – | – | – | IC50 [3]: 10.5 µM (active)
4 | COc1cccc(CNc2ccc([N+](=O)[O-])c(NCC(=O)O)n2)c1 | – | – | – | IC50 [3]: 5.38 µM (active)
5 | O=C1c2cccc([N+](=O)[O-])c2C(=O)N1c1ncn[nH]1 | – | – | – | AC50 [4]: 3.98 µM (inconclusive); AC50 [5]: 3.16 µM (inconclusive); AC50 [6]: inconclusive; AC50 [2]: inconclusive
6 | Cc1ccc(CNc2nc(Cl)c(C#N)s2)cc1 | – | – | – | IC50 [3]: 4.33 µM (not active)
7 | CCOC(=O)c1sc(SCC(=O)Nc2ccc(N(C)C)cc2)nc1N | – | – | – | IC50 [3]: 30.7 µM (not active)
8 | CCCc1cc(-c2nnc(S)n2CC(C)C)cs1 | – | – | – | IC50 [3]: > 50 µM (not active)
9 | O=C(NCC(=O)N(c1ccc(F)cc1)C(C(=O)NC1CCCC1)c1cccnc1)c1cccs1 (configuration not stated) | – | – | – | IC50 [3]: < 0.4 µM (not active)
10 | Cc1noc(C)c1COC(=O)CNC(=O)c1cccc(F)c1 | – | – | – | IC50 [3]: > 50 µM (not active)
11 | Cc1cccc(OCCC(=O)Nc2ccc(C)c(S(=O)(=O)N3CCCCC3)c2)c1 | – | – | – | IC50 [3]: 5.33 µM (not active)
12 | COc1cc(-c2nnc(-c3ccc(N4CCOCC4)cc3)o2)cc(OC)c1OC | – | – | – | IC50 [7]: > 79 µM (inactive); AC50 [4]: 7.94 µM (inconclusive); AC50 [2]: inconclusive
13 | CNc1nc(-c2ccccc2Cl)nc2ccccc12 | – | – | – | AC50 [1]: 39.8 µM (inconclusive); AC50 [2]: inconclusive
14 | CNC(=O)OCc1nc(SSC(C)(C)C)n(C)c1COC(=O)NC | 1.12 µM (inactive) | 2.47 µM (inactive) | 5.13 µM (inactive) | –
15 | O=NN(CCCl)C(=O)N[C@H]1CC[C@@H](C(=O)O)CC1 | 5.14 µM (inactive) | 5.26 µM (inactive) | 98.6 µM (inactive) | –
16 | ClCc1nnc2n1-c1ccc(Cl)cc1SC2 | 0.927 µM (active) | 1.66 µM (inactive) | 2.83 µM (inactive) | –
17 | CCOC(=O)C1=C(c2ccccc2)N=c2s/c(=C\c3ccc(O)cc3)c(=O)n2C1c1cccs1 (configuration not stated) | – | – | – | AC50 ([6]; read-out: AC50): 3.98 µM (inconclusive); EC50 [11]: 17.9 µM (active); AC50 [2]: inconclusive; EC50 [12]: 19.7 µM (active)
18 | Cc1c(N=NN(C)C)cc[n+]([O-])c1C | > 100 µM (inactive) | > 100 µM (inactive) | > 100 µM (inactive) | –
19 | C=C/C(C)=C/[C@H](C)C(=O)C[C@H](O)CC1CC(=O)NC(=O)C1 | 9.86 µM (inactive) | 27.2 µM (inactive) | 35.5 µM (inactive) | –
20 | O=c1cnn(C2OC(CO)C(O)C2O)c(=S)[nH]1 (configuration not stated) | 1.92 µM (inactive) | 0.933 µM (active) | 3.06 µM (inactive) | –

Row | Structure (SMILES) | GI50 [8] | GI50 [9] | GI50 [10] | also measured
21 | C#CC[C@@]12CC(=O)C[C@@H]1CCC1(C2)OCCO1.C#CC[C@]12CC(=O)CC[C@H]1CC(=O)C2 | 23.7 µM (inactive) | 36.6 µM (inactive) | > 100 µM (inactive) | –
22 | N/C(=N\O)N/N=C\c1cc([N+](=O)[O-])cc([N+](=O)[O-])c1O | 2.3 µM (inactive) | 7.59 µM (inactive) | 0.743 µM (active) | –
23 | CCOC(=O)C(N)CSC(=O)NC (configuration not stated) | 30.1 µM (inactive) | 12.3 µM (inactive) | 44.1 µM (inactive) | –
24 | C/C([O-])=C(/c1nc(-c2ccc([N+](=O)[O-])o2)no1)[n+]1cc(C)ccc1C | 54.8 µM (inactive) | > 100 µM (inactive) | 13.4 µM (inactive) | –
25 | CSc1nc2c(ncn2C2OCC(O)C(O)C2O)c(=O)n1C (configuration not stated) | > 100 µM (inactive) | > 100 µM (inactive) | > 100 µM (inactive) | –
26 | C[C@@H]1CN([C@@H](C)CO)C(=O)c2cccc(NC(=O)C3CCCCC3)c2O[C@H]1CN(C)CC1CCCCC1 | – | – | – | AC50 [13]: 3.12 µM (active); AC50 [14]: 67.1 µM (active)
27 | C[C@H](CO)N1C[C@H](C)[C@H](CN(C)S(=O)(=O)c2ccc(F)cc2)Oc2ccc(NS(=O)(=O)c3ccccc3)cc2CC1=O | – | – | – | AC50 [13]: 16.8 µM (active); AC50 [14]: 28.2 µM (active)
28 | C[C@H](C(=O)N(C)C[C@@H]1OCc2ccccc2-c2ccccc2C(=O)N([C@@H](C)CO)C[C@@H]1C)c1ccccc1 | – | – | – | AC50 [13]: < 0.26 µM (active); AC50 [14]: < 0.26 µM (active)
29 | C[C@H](CO)N1C[C@H](C)[C@H](CN(C)S(=O)(=O)c2cccs2)Oc2ccc(NC(=O)C3CCCCC3)cc2CC1=O | – | – | – | AC50 [13]: 0.436 µM (active); AC50 [14]: 5.23 µM (active)
30 | CCOC(=O)c1ccc(N[C@@H]2c3cc4c(cc3C(c3cc(OC)c(O)c(OC)c3)[C@H]3C(=O)OCC32)OCO4)cc1 (some centres not stated) | < 0.01 µM (active) | 0.0256 µM (active) | < 0.01 µM (active) | –
31 | COc1cc(C2c3cc4c(cc3[C@@H](Nc3cccc(C(C)=O)c3)C3COC(=O)[C@H]23)OCO4)cc(OC)c1O (some centres not stated) | < 0.01 µM (active) | 0.124 µM (active) | < 0.0361 µM (active) | –
32 | O=C(NC(c1ccccc1)C(O)C(=O)OCc1ccc2c(c1)C(=O)c1ccccc1C2=O)c1ccccc1 (configuration not stated) | 90.2 µM (inactive) | 33.8 µM (inactive) | 1.84 µM (inactive) | –
33 | COc1cc(C2c3cc4c(cc3[C@@H](Nc3ccc(N5CCOCC5)cc3)C3COC(=O)[C@H]23)OCO4)cc(OC)c1O (some centres not stated) | < 0.01 µM (active) | 0.0735 µM (active) | 1 µM (active) | –
34 | Cc1ccc(NCC(=O)N/N=C/c2c[nH]c3ccccc23)cc1 | – | – | – | IC50 [3]: 16.1 µM (not active)
35 | CN(C(=O)c1ccc(OCCCC(=O)O)c(Cl)c1Cl)C1CCCC1 | > 100 µM (inactive) | > 100 µM (inactive) | > 89.5 µM (inactive) | –
36 | CO[C@H]1C[C@](C)(O)Cc2cc3c(c(O)c21)C(=O)c1c(O)cc2c(c1C3=O)O[C@@H]1O[C@@]2(C)[C@H](O)[C@@H](N(C)C)[C@@H]1O | 0.054 µM (active) | 1.21 µM (inactive) | 0.0736 µM (active) | –
37 | CCCCCCCCCCCC1=C(O)C(=O)C=C(O)C1=O [EMBELIN] | 1.78 µM (inactive) | 9.66 µM (inactive) | 3.74 µM (inactive) | EC50 [15]: 5.02 µM (inconclusive); EC50 [16]: 1.58 µM (active); EC50 [17]: 3.32 µM (active)
38 | COc1ccc2cc1Oc1ccc(cc1)C[C@H]1c3cc(c(OC)cc3CCN1C)Oc1c(O)c(OC)cc3c1[C@H](C2)N(C)CC3 [FANGCHINOLINE] | 2 µM (inactive) | 2.58 µM (inactive) | 18.3 µM (inactive) | AC50 [18]: 5.84 µM (active)
39 | CC(=O)NCCCCCCNC(C)=O [HEXAMETHYLENEBISACETAMIDE] | 4260 µM (inactive) | 3520 µM (inactive) | 9930 µM (inactive) | –
